The record followed here is US12226405B2, “Compounds and compositions for inhibiting the activity of HIF2-alpha and their methods of use” (Novartis AG, priority 2020, dated 2025).

In assay [1] the test system is 786-O subcutaneous xenografts. The experiment in a line: In vivo 786-O tumor growth model. The conditions noted are these: female nude mice, 30 mg/kg p.o. qd, 21 days. Here is the method:
Female nude mice bearing 786-O subcutaneous xenografts were treated with Example 31 at 30 mg/kg p.o. qd or vehicle control. Treatments started 34 days post tumor inoculation and lasted 21 days. Values are provided as mean±SEM with a sample size of n=6 mice per group. The initial tumor volume at day 0 was approximately 260 mm^3.
Experiments were performed in female nude Crl:NU(NCr)-Foxnlnu-Homozygous mice (Charles River, Germany). Animals were 6-9 weeks of age at time of application of the compound. Animals were housed under Optimized Hygienic Conditions in Makrolon type III cages (max. 5 animals per cage) with free access to food and water. […]
Cell line and cell culture: 786-O and SKRC-01 cells were grown in 500 ml RPMI1640 Medium+5 ml L-Glutamine+50 ml FCS+5 ml Sodium Pyruvate+5 ml HEPES and incubated at 37° C. in a 5% CO2 humidified atmosphere. Cells were harvested with trypsin-EDTA, re-suspended in culture medium (with additives) and counted with a Casy® system. […]
Evaluation of antitumor activity: Tumor volumes were measured with calipers and determined according to the formula: length×diameter^2×π/6. In addition to presenting changes of tumor volumes over the course of treatments, antitumor activity is expressed as T/C % (mean change of tumor volume of treated animals/mean change of tumor volume of control animals)×100. […]

For assay [2], the target named is HIF2α PAS-B domain (236-350, biotinylated on the N-terminus) (Homo sapiens (Human), UniProt Q99814). Briefly: In vitro SPA with the PAS-B domain of HIF2α (competition binding with radio-ligand). As to conditions: versus corresponding enantiomer.
Chain of HIF2α PAS-B domain (236-350, biotinylated on the N-terminus) (Q99814 236-350): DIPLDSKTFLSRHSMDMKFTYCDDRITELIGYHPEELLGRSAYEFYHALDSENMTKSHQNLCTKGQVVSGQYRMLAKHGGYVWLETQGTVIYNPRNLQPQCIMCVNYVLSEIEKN
Protocol: The assay buffer contained 50 mM Tris-HCl pH7 (Sigma), 20 mM NaCl (Fluka), 0.02% BSA (Sigma), 0.005% Triton X-100 (Pierce) and 1 mM DTT (Fluka). After a 30 min incubation period, 5 μL Streptavidin PVT SPA Beads (Perkin Elmer) at 1.2 mg/mL, diluted in the buffer, were added.

Turning to `FC(F)OC1=CC(C(F)(F)F)=CN2C[C@@]3(CCC(F)(F)c4c3ccnc4Cl)N=C12` [Example 31, (S)-1′-chloro-8-(difluoromethoxy)-8′,8′-difluoro-6-(trifluoromethyl)-7′,8′-dihydro-3H,6′H-spiro[imidazo[1,2-a]pyridine-2,5′-isoquinoline]], in assay [1], the anti-tumor activity result is recorded as “demonstrated”. Take `FC(F)OC1=CC(C(F)(F)F)=CN2C[C@@]3(CCOc4cc(C(F)(F)F)ccc43)N=C12` [Example 44, (S)-8′-(difluoromethoxy)-6′,7-bis(trifluoromethyl)-3′H-spiro[chroman-4,2′-imidazo[1,2-a]pyridine]]: in assay [2], the “IC50 in the Hif2α SPA assay, fold lower than for the corresponding (R)-enantiomer” value is on record as “greater than 700 fold”.
